In US6689806B1, “Indolinone compounds as kinase inhibitors” (Sugen, Inc., priority 1999, dated 2004):
Where two headings read alike, the source gives them in different places.

How the values were obtained:
[1] = biological target: T1, Her2 (Homo sapiens, UniProt P04626); test: HER-2 ELISA: EGF receptor-HER2 chimeric receptor assay in whole cells (HER2 kinase); type: cell-based; conditions: NIH3T3 cells with EGFR/HER2 chimeric receptor, phosphotyrosine ELISA
T1 construct: fused on or other part: P00533 (Epidermal growth factor receptor)
T1 sequence (P04626 676-1255 limits assumed): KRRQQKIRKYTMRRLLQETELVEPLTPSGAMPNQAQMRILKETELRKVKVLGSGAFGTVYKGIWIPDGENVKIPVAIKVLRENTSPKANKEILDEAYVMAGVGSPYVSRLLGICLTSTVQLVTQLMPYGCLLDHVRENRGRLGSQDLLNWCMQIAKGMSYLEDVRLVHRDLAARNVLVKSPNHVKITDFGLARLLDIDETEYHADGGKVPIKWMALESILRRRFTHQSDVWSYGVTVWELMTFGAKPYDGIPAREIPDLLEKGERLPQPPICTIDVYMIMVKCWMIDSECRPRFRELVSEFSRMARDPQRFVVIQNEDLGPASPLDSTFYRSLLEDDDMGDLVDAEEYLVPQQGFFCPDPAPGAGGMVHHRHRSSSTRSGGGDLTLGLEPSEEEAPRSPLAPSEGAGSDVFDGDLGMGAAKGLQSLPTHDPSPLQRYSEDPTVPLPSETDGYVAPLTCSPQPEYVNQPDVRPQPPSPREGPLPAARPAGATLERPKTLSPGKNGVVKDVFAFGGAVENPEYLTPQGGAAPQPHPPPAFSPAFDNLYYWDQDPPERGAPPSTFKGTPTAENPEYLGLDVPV
Protocol: Assay 1: EGF Receptor-HER2 Chimeric Receptor Assay In Whole Cells.
HER2 kinase activity in whole EGFR-NIH3T3 cells was measured as described below:
1. An NIH3T3 cell line overexpressing a chimeric receptor containing the EGFR extracellular domain and intracellular HER2 kinase domain can be used for this assay.
3. Resuspend cells in seeding medium (DMEM, 0.5% bovine serum), and count the cells using trypan blue. Viability above 90% is acceptable. Seed cells in DMEM medium (0.5% bovine serum) at a density of 10,000 cells per well, 100 μL per well, in a 96 well microtiter plate. Incubate seeded cells in 5% CO2 at 37° C. for about 40 hours.
1. Check seeded cells for contamination using an inverted microscope. Dilute drug stock (10 mg/mL in DMSO) 1:10 in DMEM medium, then transfer 5 μL to a TBST well for a final drug dilution of 1:200 and a final DMSO concentration of 1%. Control wells receive DMSO alone. Incubate in 5% CO2 at 37° C. for two hours.
2. Prepare EGF ligand: dilute stock EGF in DMEM so that upon transfer of 10 μL dilute EGF (1:12 dilution), 100 nM final concentration is attained.
4. After 120 minutes incubation with drug, add prepared […] ligand to cells, 10 μL per well, to a final concentration of 100 nM. Control wells receive DMEM alone. Incubate, shaking, at room temperature, for 5 minutes.
5. Remove drug, EGF, and DMEM. Wash cells twice with PBS. Transfer HNTG* to cells, 100 μL per well. Place on ice for 5 minutes. Meanwhile, remove blocking buffer from other ELISA plate and wash with TBST as described above.
6. With a pipette tip securely fitted to a micropipettor, scrape cells from plate and homogenize cell material by repeatedly aspirating and dispensing the HNTG* lysis buffer. Transfer lysate to a coated, blocked, and washed ELISA plate. Incubate shaking at room temperature for one hour.
7. Remove lysate and wash 4 times with TBST. Transfer freshly diluted anti-Ptyr antibody to ELISA plate at 100 μL per well. Incubate shaking at room temperature for 30 minutes in the presence of the anti-Ptyr antiserum (1:3000 dilution in TBST).
8. Remove the anti-Ptyr antibody and wash 4 times with TBST. Transfer the freshly diluted TAGO anti-rabbit IgG antibody to the ELISA plate at 100 μL per well. Incubate shaking at room temperature for 30 minutes (anti-rabbit IgG antibody: 1:3000 dilution in TBST).
9. Remove TAGO detection antibody and wash 4 times with TBST. Transfer freshly prepared ABTS/H2O2 solution to ELISA plate, 100 μL per well. Incubate shaking at room temperature for 20 minutes. (ABTS/H2O2 solution: 1.0 μL 30% H2O2 in 10 mL ABTS stock).
10. Stop reaction by adding 50 μL 5N H2SO4 (optional), and determine O.D. at 410 nm.
11. The maximal phosphotyrosine signal is determined by subtracting the value of the negative controls from the positive controls. The percent inhibition of phosphotyrosine content for extract-containing wells is then calculated, after subtraction of the negative controls.

[2] = system: SKOV3; test: SKOV3 growth; type: cell-based; conditions: Homo sapiens, SK-OV-3, SKOV3 cells
[3] = system: A431; test: A431 growth; type: cell-based; conditions: Homo sapiens, A-431, A431 cells
[4] = biological target: PDGFR (Homo sapiens, UniProt P09619); test: Biochemical PDGFR assay (ELISA); set-up: expressed in transfected cells; host or cells: NIH 3T3; conditions: read-out: PDGFr biochem IC50
Chain of PDGFR (P09619 33-1106): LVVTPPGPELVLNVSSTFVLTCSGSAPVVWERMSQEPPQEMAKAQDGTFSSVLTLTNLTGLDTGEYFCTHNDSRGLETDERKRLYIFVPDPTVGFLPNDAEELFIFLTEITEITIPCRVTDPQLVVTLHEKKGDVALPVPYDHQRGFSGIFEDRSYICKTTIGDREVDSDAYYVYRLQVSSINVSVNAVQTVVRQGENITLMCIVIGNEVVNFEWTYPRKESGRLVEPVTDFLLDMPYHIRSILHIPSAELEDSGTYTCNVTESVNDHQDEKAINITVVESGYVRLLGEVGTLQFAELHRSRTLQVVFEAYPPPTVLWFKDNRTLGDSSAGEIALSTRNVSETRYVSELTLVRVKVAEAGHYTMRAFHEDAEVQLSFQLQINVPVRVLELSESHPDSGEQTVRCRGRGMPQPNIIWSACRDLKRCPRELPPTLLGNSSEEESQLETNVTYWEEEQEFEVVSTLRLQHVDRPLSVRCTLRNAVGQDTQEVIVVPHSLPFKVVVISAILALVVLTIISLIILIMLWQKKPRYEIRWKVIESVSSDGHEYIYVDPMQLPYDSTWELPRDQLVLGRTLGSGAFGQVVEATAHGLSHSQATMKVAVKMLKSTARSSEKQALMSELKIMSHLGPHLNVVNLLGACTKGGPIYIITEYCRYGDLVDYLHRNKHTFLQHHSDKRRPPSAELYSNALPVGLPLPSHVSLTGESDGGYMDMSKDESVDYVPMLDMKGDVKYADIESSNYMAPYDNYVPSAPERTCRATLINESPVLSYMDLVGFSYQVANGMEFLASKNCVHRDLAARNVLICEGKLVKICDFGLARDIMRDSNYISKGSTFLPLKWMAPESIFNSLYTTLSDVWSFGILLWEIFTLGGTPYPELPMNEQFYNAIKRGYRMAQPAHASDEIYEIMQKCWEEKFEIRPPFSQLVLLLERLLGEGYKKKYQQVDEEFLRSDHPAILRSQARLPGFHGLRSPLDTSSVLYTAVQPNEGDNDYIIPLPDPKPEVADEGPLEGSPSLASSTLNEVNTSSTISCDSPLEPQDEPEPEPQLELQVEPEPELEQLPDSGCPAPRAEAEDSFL
Protocol: This assay measures the in vitro kinase activity of PDGFR using ELISA.
6. PDGFR-β expressing NlH 3T3 cell lysate.
1. Coat Corning 96 well ELISA plates with 0.5 μg 28D4C10 in 100 μL PBS per well, store overnight at 4° C.
5. Dilute lysate in HNTG (10 μg lysate/100 μL HNTG)
(§1) 6. Add 100 μL of diluted lysate to each well. Shake at room temperature for 60 min.
8. Add 80 μL working kinase buffer mix to ELISA plate containing captured PDGFR.
9. Dilute test compound 1:10 in TBS in 96-well polypropylene plates (i.e., 10 μL compound+90 μL TBS).
10. Add 10 μL diluted test compound to ELISA plate.
11. Incubate for 30 minutes while shaking at room temperature.
12. Add 10 μL ATP directly to all wells except negative control well (final well volume should be approximately 100 μL with 20 μM ATP in each well.) Incubate 30 minutes while shaking.
13. After 30 minutes, stop reaction by adding 10 μL of 200 mM EDTA (pH 8.0) to each well.
(§2) 15. Add 100 μL anti-phosphotyrosine (1:3000 dilution in TBST) per well. Incubate 30-45 min. at room temperature, with shaking.
(§3) 17. Add 100 μL Biosource Goat anti-rabbit IgG peroxidase conjugate (1:2000 dilution in TBST) to each well. Incubate 30 min. at room temperature, with shaking.
(§4) 19. Add 100 μL of ABTS/H2O2 solution to each well.
22. Read assay on Dynatech MR7000 ELISA reader: test filter: 410 nM, reference filter: 630 nM.

[5] = biological target: EGFR (Homo sapiens, UniProt P00533); test: Biochemical EGFR assay (ELISA); set-up: A431 cell lysate; endogenous in cells; host or cells: A431; conditions: read-out: EGFr biochem IC50
Chain of EGFR (P00533 25-1210): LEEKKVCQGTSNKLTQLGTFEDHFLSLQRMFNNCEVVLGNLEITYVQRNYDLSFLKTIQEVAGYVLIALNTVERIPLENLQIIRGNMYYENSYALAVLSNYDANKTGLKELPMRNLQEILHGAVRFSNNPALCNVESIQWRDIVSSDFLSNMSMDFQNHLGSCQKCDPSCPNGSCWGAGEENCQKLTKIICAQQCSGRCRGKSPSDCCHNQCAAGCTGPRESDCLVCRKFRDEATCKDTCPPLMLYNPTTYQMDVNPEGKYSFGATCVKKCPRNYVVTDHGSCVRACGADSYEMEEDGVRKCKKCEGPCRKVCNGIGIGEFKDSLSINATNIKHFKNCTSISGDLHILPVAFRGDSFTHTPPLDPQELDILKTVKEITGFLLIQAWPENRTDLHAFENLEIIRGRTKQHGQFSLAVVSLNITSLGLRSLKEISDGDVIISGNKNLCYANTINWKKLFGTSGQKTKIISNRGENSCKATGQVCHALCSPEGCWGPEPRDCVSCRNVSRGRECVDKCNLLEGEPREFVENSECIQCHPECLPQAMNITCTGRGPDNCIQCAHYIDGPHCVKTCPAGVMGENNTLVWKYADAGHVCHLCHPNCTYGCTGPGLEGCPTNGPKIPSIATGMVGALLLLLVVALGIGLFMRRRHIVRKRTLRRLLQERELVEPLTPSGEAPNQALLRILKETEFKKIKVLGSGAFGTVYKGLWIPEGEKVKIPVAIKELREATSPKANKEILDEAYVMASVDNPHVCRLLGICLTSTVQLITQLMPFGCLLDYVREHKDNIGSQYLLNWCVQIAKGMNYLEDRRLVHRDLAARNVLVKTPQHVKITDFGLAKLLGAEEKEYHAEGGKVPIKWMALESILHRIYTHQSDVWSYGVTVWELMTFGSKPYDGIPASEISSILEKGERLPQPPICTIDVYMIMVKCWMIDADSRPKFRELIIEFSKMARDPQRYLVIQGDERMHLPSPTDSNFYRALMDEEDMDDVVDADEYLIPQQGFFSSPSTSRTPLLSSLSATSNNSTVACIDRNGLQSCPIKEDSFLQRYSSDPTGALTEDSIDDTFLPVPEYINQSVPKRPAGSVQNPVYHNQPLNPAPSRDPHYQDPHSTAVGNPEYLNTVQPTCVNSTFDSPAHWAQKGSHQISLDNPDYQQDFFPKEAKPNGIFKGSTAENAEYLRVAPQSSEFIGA
Protocol: This assay measures the in vitro kinase activity of EGFR using ELISA.
1. Coat Coming 96 well ELISA plates with 0.5 μg SUMOl in 100 μL PBS per well, store overnight at 4° C.
5. Dilute lysate in PBS (7 μg lysate/100 μL PBS).
as §1
8. Add 120 μL TBS to ELISA plate containing captured EGFR.
9. Dilute test compound 1:10 in TBS in 96-well polypropylene plates (ie. 10 μL compound+90 μL TBS).
10. Add 13.5 μL diluted test compound to ELISA plate.
13. After 5 minutes, stop reaction by adding 16.5 μL of 200 mM EDTA (pH 8.0) to each well, shaking continuously. After the EDTA has been added, shake for 1 mm.
as §2, §3, §4
22. Read assay on Dynatech MR7000 ELISA reader. Test Filter: 410 nM Reference Filter: 630 Nm.

[6] = biological target: T1, Her2; test: EGF-induced Her2-driven BrdU incorporation; type: cell-based; conditions: Table 7; 3T3 cells with EGF-R/Her2 chimeric receptor, EGF 2 nM; read-out: BrdU DNA syn. HER2 IC50
Protocol: The cellular/biologic assays described herein measure the amount of DNA made in response to activation of a test kinase, which is a general measure of a proliferative response. The general procedure for this assay is as follows: a compound is introduced to cells expressing the test kinase, either naturally or recombinantly, for some period of time after which, if the test kinase is a receptor, a ligand known to activate the receptor is added. After incubation at least overnight, a DNA labeling reagent such as Bromodeoxy-uridine (BrdU) or 3H-thymidine is added. The amount of labeled DNA is detected with either an anti-BrdU antibody or by measuring radioactivity and is compared to control cells not contacted with a test compound.
EGF-Induced Her2-Driven BrdU Incorporation
(8) 3T3 cell line engineered to express a chimeric receptor having the extra-cellular domain of EGF-R and the intra-cellular domain of Her2.
(1) Cells are seeded at 8000 cells/well in DMEM, 10% CS, 2 mM Gln in a 96-well plate. Cells are incubated overnight at 37° C. in 5% CO2.
(2) After 24 hours, the cells are washed with PBS, and then are serum starved in serum free medium (0% CS DMEM with 0.1% BSA) for 24 hours.
(3) On day 3, ligand (EGF=2 nM, prepared in DMEM with 0.1% BSA) and test compounds are added to the cells simultaneously. The negative control wells receive serum free DMEM with 0.1% BSA only; the positive control cells receive the ligand (EGF) but no test compound. Test compounds are prepared in serum free DMEM with ligand in a 96 well plate, and serially diluted for 7 test concentrations.
(4) After 20 hours of ligand activation, diluted BrdU labeling reagent (1:100 in DMEM, 0.1% BSA) is added and the cells are incubated with BrdU (final concentration=[…]) for 1.5 hours.
(10) The absorbance of the samples are measured at 410 nm (in “dual wavelength” mode with a filter reading at 490 nm, as a reference wavelength) on a Dynatech ELISA plate reader.

[7] = Table 5, in vitro kinase activity
[8] = Table 7, in vitro kinase activity

SMILES | IC50 ([1]; Table 5) [µM] | IC50 ([2]; Table 5) [µM] | IC50 ([3]; Table 5) [µM] | IC50 [4, 7] [µM] | IC50 [5, 7] [µM] | IC50 ([1]; Table 7) [µM] | IC50 ([2]; Table 7) [µM] | IC50 ([3]; Table 7) [µM] | IC50 [4, 8] [µM] | IC50 [5, 8] [µM] | IC50 [6] [µM]
COc1cc(C)c(CC2C(=O)Nc3ccccc32)cc1C(C)C (centres unmarked) [AAI-9, 3-(5-Isopropyl-4-methoxy-2-methylbenzyl)-1,3-dihydroindol-2-one] | > 100 | 5.2 | 5.25 | > 100 | > 100 | – | – | – | – | – | –
O=C1Nc2cccc(CCO)c2C1Cc1ccccc1 (centres unmarked) [AAI-12, 3-Benzyl-4-(2-hydroxyethyl)-1,3-dihydroindol-2-one] | > 100 | > 50 | > 50 | > 100 | > 100 | – | – | – | – | – | –
O=C1Nc2cccc(CCO)c2/C1=C/c1ccc2[nH]ccc2c1 [IN-007, 4-(2-Hydroxy-ethyl)-3-(1H-indol-5-ylmethylene)-1,3-dihydro-indol-2-one] | – | – | – | – | – | 22.7 | 9.7 | 4.2 | > 100 | > 100 | –
Cc1[nH]c(/C=C2\C(=O)Nc3cccc(CCO)c32)c(C)c1CCCN(C)C [IN-009, 3-[4-(3-Dimethylamino-propyl)-3,5-dimethyl-1H-pyrrol-2-ylmethylene]-4-(2-hydroxy-ethyl)-1,3-dihydro-indol-2-one] | – | – | – | – | – | > 100 | 25.2 | 13.6 | – | > 100 | 4.2
